From US20180320217A1, “METHODS FOR SAMPLING AND MEASURING ORAL LAVAGE PROTEINS” (The Procter & Gamble Company, priority 2017, published 2018)
“And” between values parts separate entries of the source, which are not always exact repeats. Equal entries are not always repeated. “Also recorded” adds a separate entry of the source.

Key:
diaphorase [1] = experiment: Formation of formazan dyes: NADH and diaphorase, absence of malate (TABLE 7); type: biochemical, Clostridium kluyveri; conditions: NADH and diaphorase, absence of malate
diaphorase [2] = experiment: Formation of formazan dyes: NADH, diaphorase and malate (TABLE 8); type: biochemical, Clostridium kluyveri; conditions: NADH, diaphorase and malate
[3] = test system: Malate dehydrogenase and diaphorase; experiment: Formation of formazan dyes: Malate dehydrogenase and diaphorase, absence of malate (TABLE 9); type: biochemical, pig heart
[4] = test system: Malate dehydrogenase and diaphorase; experiment: Formation of formazan dyes: Malate dehydrogenase, diaphorase and malate (TABLE 10); type: biochemical, pig heart
oral lavage [5] = experiment: Formation of formazan dyes: oral lavage and diaphorase, not malate (TABLE 11); type: biochemical, human
oral lavage [6] = experiment: Formation of formazan dyes: oral lavage, malate and diaphorase (TABLE 12); type: biochemical, human; conditions: oral lavage, malate and diaphorase
diaphorase [7] = experiment: Formation of formazan dyes: only diaphorase, not malate (TABLE 13); type: biochemical, Clostridium kluyveri; conditions: mean of three experiments
diaphorase [8] = experiment: Formation of formazan dyes: only diaphorase and malate (TABLE 14); type: biochemical, Clostridium kluyveri; conditions: mean of three experiments
[9] = Formation of formazan dyes: NADH and 1-methoxy PMS, absence of malate (TABLE 15); type: biochemical
[10] = Formation of formazan dyes: NADH, malate and 1-methoxy PMS (TABLE 16); type: biochemical
oral lavage [11] = experiment: Formation of formazan dyes: oral lavage and 1-Methoxy PMS, absence of malate (TABLE 19); type: biochemical, human
[12] = Formation of formazan dyes: control buffer and 1-Methoxy PMS, absence of malate (TABLE 21); type: biochemical
[13] = Formation of formazan dyes: control buffer, malate and 1-Methoxy PMS (TABLE 22); type: biochemical
Malate dehydrogenase = target: T1, Malate dehydrogenase (Sus scrofa, UniProt P00346); experiment: Formation of formazan dyes: Malate dehydrogenase and 1-Methoxy PMS, absence of malate (TABLE 17); type: biochemical, pig heart; design: L-malate dehydrogenase (pig heart); purchased Sigma-Aldrich 10127248001 / 10127914001
T1 sequence (P00346 25-338): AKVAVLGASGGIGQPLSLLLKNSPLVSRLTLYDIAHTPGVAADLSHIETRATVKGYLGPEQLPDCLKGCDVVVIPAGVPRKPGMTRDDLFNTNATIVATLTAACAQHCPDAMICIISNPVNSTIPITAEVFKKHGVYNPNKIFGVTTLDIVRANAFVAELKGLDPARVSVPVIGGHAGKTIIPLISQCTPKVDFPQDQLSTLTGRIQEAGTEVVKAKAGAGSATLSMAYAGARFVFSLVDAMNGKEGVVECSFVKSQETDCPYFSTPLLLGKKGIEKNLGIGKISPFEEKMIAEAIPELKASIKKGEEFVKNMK

Substance: 2-Benzothiazoryl-3-(4-carboxy-2-methoxyphenyl)-5-[4-(2-sulfoethylcarbamoyl)phenyl]-2H-tetrazolium [WST-4]
- Formation of formazan dyes, absorbance, Means 0 h (diaphorase [1]; 0 h): 1.96
- Formation of formazan dyes, absorbance, Means 1 h (diaphorase [1]; 1 h): 2.01
- Formation of formazan dyes, absorbance, Means 2 h (diaphorase [1]; 2 h): 2.04
- Formation of formazan dyes, absorbance, Means 3 h (diaphorase [1]; 3 h): 2.08
- Formation of formazan dyes, absorbance, Means 4 h (diaphorase [1]; 4 h): 2.20
- Formation of formazan dyes, absorbance, Means 6 h (diaphorase [1]; 6 h): 2.25
- Formation of formazan dyes, absorbance, Means 8 h (diaphorase [1]; 8 h): 2.29
- Formation of formazan dyes, absorbance, Means 10 h (diaphorase [1]; 10 h): 2.30
- Formation of formazan dyes, absorbance, Means 12 h (diaphorase [1]; 12 h): 2.32
- Formation of formazan dyes, absorbance, Means 0 h (diaphorase [2]; 0 h): 1.92
- Formation of formazan dyes, absorbance, Means 1 h (diaphorase [2]; 1 h): 1.91
- Formation of formazan dyes, absorbance, Means 2 h (diaphorase [2]; 2 h): 1.91
- Formation of formazan dyes, absorbance, Means 3 h (diaphorase [2]; 3 h): 1.89
- Formation of formazan dyes, absorbance, Means 4 h (diaphorase [2]; 4 h): 1.97
- Formation of formazan dyes, absorbance, Means 6 h (diaphorase [2]; 6 h): 1.94
- Formation of formazan dyes, absorbance, Means 8 h (diaphorase [2]; 8 h): 1.92
- Formation of formazan dyes, absorbance, Means 10 h (diaphorase [2]; 10 h): 1.88
- Formation of formazan dyes, absorbance, Means 12 h (diaphorase [2]; 12 h): 1.83
- Formation of formazan dyes, absorbance, Means 0 h ([3]; Malate dehydrogenase and diaphorase, absence of malate, 0 h): 0.51
- Formation of formazan dyes, absorbance, Means 1 h ([3]; Malate dehydrogenase and diaphorase, absence of malate, 1 h): 0.83
- Formation of formazan dyes, absorbance, Means 2 h ([3]; Malate dehydrogenase and diaphorase, absence of malate, 2 h): 0.99
- Formation of formazan dyes, absorbance, Means 3 h ([3]; Malate dehydrogenase and diaphorase, absence of malate, 3 h): 1.06
- Formation of formazan dyes, absorbance, Means 4 h ([3]; Malate dehydrogenase and diaphorase, absence of malate, 4 h): 1.17
- Formation of formazan dyes, absorbance, Means 6 h ([3]; Malate dehydrogenase and diaphorase, absence of malate, 6 h): 1.24
- Formation of formazan dyes, absorbance, Means 8 h ([3]; Malate dehydrogenase and diaphorase, absence of malate, 8 h): 1.35
- Formation of formazan dyes, absorbance, Means 10 h ([3]; Malate dehydrogenase and diaphorase, absence of malate, 10 h): 1.44
- Formation of formazan dyes, absorbance, Means 12 h ([3]; Malate dehydrogenase and diaphorase, absence of malate, 12 h): 1.47
- reduction of tetrazolium dye in the absence of substrate malate ([3]; malate dehydrogenase and diaphorase (TABLE 9)): partially reduced
- Formation of formazan dyes, absorbance, Means 0 h ([4]; Malate dehydrogenase, diaphorase and malate, 0 h): 0.51
- Formation of formazan dyes, absorbance, Means 1 h ([4]; Malate dehydrogenase, diaphorase and malate, 1 h): 0.81
- Formation of formazan dyes, absorbance, Means 2 h ([4]; Malate dehydrogenase, diaphorase and malate, 2 h): 0.99
- Formation of formazan dyes, absorbance, Means 3 h ([4]; Malate dehydrogenase, diaphorase and malate, 3 h): 1.13
- Formation of formazan dyes, absorbance, Means 4 h ([4]; Malate dehydrogenase, diaphorase and malate, 4 h): 1.25
- Formation of formazan dyes, absorbance, Means 6 h ([4]; Malate dehydrogenase, diaphorase and malate, 6 h): 1.43
- Formation of formazan dyes, absorbance, Means 8 h ([4]; Malate dehydrogenase, diaphorase and malate, 8 h): 1.57
- Formation of formazan dyes, absorbance, Means 10 h ([4]; Malate dehydrogenase, diaphorase and malate, 10 h): 1.68
- Formation of formazan dyes, absorbance, Means 12 h ([4]; Malate dehydrogenase, diaphorase and malate, 12 h): 1.75
- conversion to reduced formazan dyes ([4]; malate dehydrogenase, diaphorase and malate (TABLE 10)): converted to reduced formazan dyes in a time-dependent fashion; also recorded: able to catalyze the reduction
- Formation of formazan dyes, absorbance, Means 0 h (oral lavage [5]; oral lavage and diaphorase, not malate, 0 h): 0.55
- Formation of formazan dyes, absorbance, Means 1 h (oral lavage [5]; oral lavage and diaphorase, not malate, 1 h): 0.74
- Formation of formazan dyes, absorbance, Means 2 h (oral lavage [5]; oral lavage and diaphorase, not malate, 2 h): 0.76
- Formation of formazan dyes, absorbance, Means 3 h (oral lavage [5]; oral lavage and diaphorase, not malate, 3 h): 0.80
- Formation of formazan dyes, absorbance, Means 4 h (oral lavage [5]; oral lavage and diaphorase, not malate, 4 h): 0.78
- Formation of formazan dyes, absorbance, Means 6 h (oral lavage [5]; oral lavage and diaphorase, not malate, 6 h): 0.88
- Formation of formazan dyes, absorbance, Means 8 h (oral lavage [5]; oral lavage and diaphorase, not malate, 8 h): 0.90
- Formation of formazan dyes, absorbance, Means 10 h (oral lavage [5]; oral lavage and diaphorase, not malate, 10 h): 0.87
- Formation of formazan dyes, absorbance, Means 12 h (oral lavage [5]; oral lavage and diaphorase, not malate, 12 h): 0.93
- reduction to formazan dyes by pooled oral lavage (oral lavage [5]; pooled oral lavage of high bleeder group, diaphorase, no added malate (TABLE 11)): partially reduced to formazan dyes
- Formation of formazan dyes, absorbance, Means 0 h (oral lavage [6]; 0 h): 0.44
- Formation of formazan dyes, absorbance, Means 1 h (oral lavage [6]; 1 h): 0.56
- Formation of formazan dyes, absorbance, Means 2 h (oral lavage [6]; 2 h): 0.63
- Formation of formazan dyes, absorbance, Means 3 h (oral lavage [6]; 3 h): 0.67
- Formation of formazan dyes, absorbance, Means 4 h (oral lavage [6]; 4 h): 0.77
- Formation of formazan dyes, absorbance, Means 6 h (oral lavage [6]; 6 h): 0.83
- Formation of formazan dyes, absorbance, Means 8 h (oral lavage [6]; 8 h): 0.89
- Formation of formazan dyes, absorbance, Means 10 h (oral lavage [6]; 10 h): 0.96
- Formation of formazan dyes, absorbance, Means 12 h (oral lavage [6]; 12 h): 0.95
- Absorbance, formation of formazan dyes (Means) (diaphorase [7]; 0 h): 0.22
- Absorbance, formation of formazan dyes (Means) (diaphorase [7]; 1 h): 0.35
- Absorbance, formation of formazan dyes (Means) (diaphorase [7]; 2 h): 0.40
- Absorbance, formation of formazan dyes (Means) (diaphorase [7]; 3 h): 0.40
- Absorbance, formation of formazan dyes (Means) (diaphorase [7]; 4 h): 0.38
- Absorbance, formation of formazan dyes (Means) (diaphorase [7]; 6 h): 0.30
- Absorbance, formation of formazan dyes (Means) (diaphorase [7]; 8 h): 0.32
- Absorbance, formation of formazan dyes (Means) (diaphorase [7]; 10 h): 0.36
- Absorbance, formation of formazan dyes (Means) (diaphorase [7]; 12 h): 0.39
- Absorbance, formation of formazan dyes (Means) (diaphorase [8]; 0 h): 0.08
- Absorbance, formation of formazan dyes (Means) (diaphorase [8]; 1 h): 0.10
- Absorbance, formation of formazan dyes (Means) (diaphorase [8]; 2 h): 0.12
- Absorbance, formation of formazan dyes (Means) (diaphorase [8]; 3 h): 0.14
- Absorbance, formation of formazan dyes (Means) (diaphorase [8]; 4 h): 0.16
- Absorbance, formation of formazan dyes (Means) (diaphorase [8]; 6 h): 0.19
- Absorbance, formation of formazan dyes (Means) (diaphorase [8]; 8 h): 0.23
- Absorbance, formation of formazan dyes (Means) (diaphorase [8]; 10 h): 0.26
- Absorbance, formation of formazan dyes (Means) (diaphorase [8]; 12 h): 0.27
- Absorbance, formation of formazan dyes (Means) [9]: 1.52 and 1.57 and 1.64
- Absorbance, formation of formazan dyes (Means) [10]: 1.32 and 1.31 and 1.29 and 1.30
- Absorbance, formation of formazan dyes (Means) (oral lavage [11]): 0.78 and 1.07 and 1.15 and 1.22
- Absorbance, formation of formazan dyes (Means) [12]: 0.30 and 0.34 and 0.43 and 0.44
- Means absorbance 0 h [13]: 0.13
- Means absorbance 1 h [13]: 0.13
- Means absorbance 2 h [13]: 0.13
- Means absorbance 3 h [13]: 0.15
- Absorbance, formation of formazan dyes (Means) (Malate dehydrogenase): 0.27 and 0.29 and 0.31 and 0.38
- reduction by malate dehydrogenase alone (Malate dehydrogenase): did not catalyze the reduction
